Literature values in patent publication US20240225064A1, “METHOD FOR MASS-PRODUCING SWEETENER HAVING TASTE QUALITY SIMILAR TO THAT OF SUGAR AND HAVING D-ALLULOSE FUNCTIONALITY” (NATIONAL UNIVERSITY CORPORATION KAGAWA UNIVERSITY, priority 2021, published 2024).
Where two headings read alike, the source gives them in different places.

Experiments:
[1] = not given; remark: listed apart in the source
[2] = content in sweetener

## O=C(CO)[C@H](O)[C@H](O)[C@H](O)CO [D-allulose]
Assuming that the sweetness degree of sugar is 100
  sweetness degree (sweetness intensity): 70
Of that of sugar
  sweetness degree relative to sugar: about 70%
[1]
  acute oral toxicity test: ≥ 5,000 mg/kg
[2]
  D-allulose content at which the function of suppressing rapid absorption of a saccharide appears: ≥ 5 mass %

## O=C(CO)[C@@H](O)[C@H](O)[C@H](O)CO [D-fructose]
At 40° C.
  sweetness of D-fructose relative to sucrose: equal thereto
At high temperatures
  sweetness of D-fructose relative to sucrose: 60%
